Experimental data: US9435738B2, “System and device for characterizing cells” (The Johns Hopkins University, priority 2011, dated 2016)

Test system: Mouse myoblasts (c2c12)
Assay: microscopy-based assay measuring cell cycle phase and cell/nuclear properties simultaneously in the same cells
Settings: for cell cycle phase enriched / blocked by treatment: cell-cycle distribution vs control cells; for contribution to changes in nuclear size due to (uncontrolled) intrinsic changes in nuclear size in each phase / contribution to changes in nuclear size due to forced cell-cycle redistribution: population-averaged nuclear size, Eq. 2, FIG. 36 B; for time after release at which asynchronized (untreated) cell cycle distribution is recovered: release from synchronizing drug
Experimental: For each type of cell, ˜10,000 cells were plated on a glass bottom dish (World Precision Instruments, Sarasota, Fla.). After incubation for 48 h, the treatment for synchronization was applied. To serum-starve cells, cells were washed three times with Hanks' balanced salt solution (HBSS) (GBICO) and cultured in serum-free medium for 72 h. For synchronization at early S phase, cells were treated with 2 mM of thymidine for 18 h twice. Between these two treatments, cells were rinsed with HBSS three times and cultured in normal growth medium to release cell cycle for 9 h. To synchronize cells in the M phase, cells were first treated with 2 mM of thymidine for 24 h. Followed by rinsing with HBSS three times, cells were released with normal growth medium for 3 h. After the short release, cells were treated with 100 ng/ml of microtubule-depolymerizing drug nocodazole for 12 h.
Cells were fixed with 3.7% of formaldehyde (Sigma) for 15 min at room temperature (RT). After fixation, cells were permeabilized with 0.1% Triton X-100 (Sigma) for 10 min and blocked for nonspecific binding with phosphate-buffered saline (PBS) supplemented with 10% of goat serum for 30 min. Cells were incubated with specific concentration of dye diluted from stock solution for 1 h. Nuclear DNA was stained with Hoechst 33342 (Sigma) at 1:40 dilution, Cytoplasm was stained with HCS CellMask Cy5 (Invitrogen) at 1:20000 dilution. Actin was stained with Phalloidin 488 (Invitrogen) at 1:40 dilution. PBS rinse was conducted three times between each step.
Fluorescent images were collected with a Nikon DS-QiMc camera installed on a customized Nikon TE300 microscope with a 10× Plan Fluor lens (N.A. 0.3, Nikon Melville, N.Y.), a motorized stage, and motorized excitation and emission filters (Prior Scientific, Rockland, Mass.) controlled by Nikon NIS Elements. Eighty-one (9-by-9 grid) fields of views were consistently generated using the software Nikon NIS-Elements. The size of the image acquired from the camera was 1280×1024 pixels, and the pixel size was 0.57 μm for a 10× objective. Our ΔX and ΔY for image capture was 662 μm and 520 μm respectively to allow 10% overlay between adjacent fields. The total size of the scanning region (81 images) was ˜28.5 mm^2. Four different channels (UV, GFP, Cy5, and phase contrast) were collected for every field of view. The calibration glass-bottom dish contained dyes for three different fluorescent channels, UV, GFP, and Cy5. For each fluorescence channel, UV, GFP, and Cy5, two calibration images were acquired: with and without illumination. The calibration images were used to reduce the non-uniform illumination of fluorescent images. All of the phenotypic information was calculated with a custom high throughput program (written in Matlab) developed in our laboratory. Typically >1,000 cells were analyzed per different biological repeat (i.e. different cells) for a total >3,000 cells for each tested condition.
To precisely segment individual cells and nuclei, we used slightly different approaches based on the same principle. For nuclear segmentation, because of the relatively circular shape and relatively even intensity of the Hoechst stain, we filtered calibrated images (as described in the previous section) with a 23×23 pixel normalized Gaussian filter (similar scale as the size of nuclei) and an averaging filter (same size) to obtain IG (Gaussian intensity) and IM (averaged intensity). Subtracting IM from IG gives IN, the nuclear intensity values without regional background.
Because cells are larger than their nuclei, a larger size of filters was needed. However, one major limitation with spatial domain image filters is non-continuous edges. Increasing the size of the filter increases the size of this “non-trustable” region. The use of a spatial filter 2r+1 in size will lead to the loss of r+1 pixels from the edge because of incomplete information, which greatly reduces the usable image size. […]

SMILES | decrease in nuclear size of cells in the G0/G1 phase (10 nM for 24 h, G0/G1 phase, P<0.0001) | decrease in population-averaged cell size / nuclear size (10 nM for 24 h, population-averaged, accompanied by rounding of the nucleus) | time after release during which cell properties continued to be affected (after removing inhibitor) | cell cycle phase enriched / blocked by treatment | increase in mean cell size in the G2/M phase compared to untreated (asynchronized) cells in the same phase | change in measured cell properties caused by synchronization (compared phase-to-phase to control cells) | contribution to changes in nuclear size due to (uncontrolled) intrinsic changes in nuclear size in each phase | contribution to changes in nuclear size due to forced cell-cycle redistribution | time after release at which asynchronized (untreated) cell cycle distribution is recovered | increase in mean size of cells in the G0/G1 phase compared to untreated (asynchronized) cells in the same phase (G0/G1 phase) | mean size of treated cells in the S phase relative to mean size of untreated cells in the S phase (S phase) | increase in mean size of cells in the S phase compared to untreated cells in the same phase (S phase, after forced synchronization)
CCNc1cc(N[C@H]2CC[C@H](O)CC2)nc(Nc2ccc3c(ccn3Cc3ccccc3)c2)n1 [Cdk4/6 inhibitor IV, trans-4-((6-(ethylamino)-2-((1-(phenylmethyl)-1H-indol-5-yl)amino)-4-pyrimidinyl)amino)-cyclohexanol] | > 50% | ~50% | up to 6 h | blocked cells in the G0/G1 phase | – | – | – | – | – | – | – | –
COC(=O)Nc1nc2ccc(C(=O)c3cccs3)cc2[nH]1 [nocodazole] | – | – | – | M phase | 75% | > 30% | 41% | 35% | 24 h | – | – | –
Cc1cn([C@H]2C[C@H](O)[C@@H](CO)O2)c(=O)[nH]c1=O [thymidine] | – | – | – | S phase | 220% | – | 91% | 9% | 24 h | 130% | 2.2 times | 120%
